In general, MIC50 refers to an inhibitory concentration at the 50% level, which refers to growth in some studies and to a panel of isolates in others. Usually MIC90 stands for the lowest concentration that inhibits either 90% of growth or 90% of the strains tested, depending on the study.

≈ marks a conversion by molar mass, not a printed value. Where “and” joins values, the source holds several entries; their conditions need not be identical. Equal values may be shown once.

This note sets out measurements from patent US9539223B2, “Methods for treating bacterial infections” (Neoculi Pty Ltd., priority 2013, dated 2017).

In assay [1] the test system is methicillin-resistant Staphylococcus aureus (MRSA). Nature of the assay: Minimum inhibitory concentration assay (CLSI), MRSA isolates. It is filed as cell-based. The settings on record: ATCC control strains.
Protocol: Minimum inhibitory concentration tests were performed according to CLSI Standards (CLSI 2008). […] The solutions were then serially diluted across the row, leaving 2 columns for positive and negative controls. A bacterial suspension was prepared by adding fresh colonies obtained from an overnight culture on Sheep Blood Agar (SBA) to a 9.1 g/L saline solution. This suspension was adjusted to a concentration of between 4×10^8 and 5×10^8 CFU/mL. Concentration of the suspension was determined by measuring optical density (OD) using a spectrophotometer at a wavelength of 600 nm where the correct concentration was determined to have an optical density of between 1.00 and 1.20. One milliliter of this suspension was added to 9 mL of saline before being added to all wells, excluding the negative control wells, in 10 μL volumes giving a final concentration of between 4×10^5 and 5×10^5 CFU/mL in each well. The tests were then incubated for 24 hours at 37° C. and then assessed both visually and using OD readings from a microplate reader at a wavelength of 600 nm. These tests were performed in duplicate but repeated if discrepancies were observed.
The minimum inhibitory concentration (MIC) was determined to be the lowest concentration of antibiotic that prevented growth of bacteria both visually and using OD readings.
The subject of assay [2] is methicillin-resistant and methicillin-susceptible Staphylococcus aureus. As to the kind of experiment: MIC by broth microdilution (CLSI), S. aureus clinical isolates. It is filed as cell-based. The note with it: positive control. (Dilution methods test growth across graded concentrations, often in twofold steps.)
Protocol: Microtiter plates containing two-fold dilutions of each antimicrobial agent were inoculated with ˜10^5-CFU/ml of each isolate in a 100-μl final volume. Plates were incubated for 24-h at 37° C. Turbidity (absorbance at OD600) was measured using a Bio-Rad Benchmark Plus microplate spectrophotometer in Microplate Manager® version 5.2.1 (Bio-Rad). Minimum inhibitory concentration (MIC) endpoints were defined as the lowest antimicrobial concentration assessed by the spectrophotometer that inhibited bacterial growth. ATCC 49775 was included in the isolate collection as a control organism using breakpoints defined by the CLSI. The MIC50, MIC90 (concentrations that inhibited growth of the lower 50% and 90% of total organisms, respectively), and MIC range (minimum and maximum) were calculated to profile the antimicrobial susceptibility of the isolate collection.
For assay [3], the system named is S. pneumoniae. Nature of the assay: MIC by micro-broth dilution, pneumococcal isolates. It is filed as cell-based, Streptococcus pneumoniae. As for the experimental part: (§1) [Micro-broth dilutions and 96-well trays are prepared by the following method: 90 μL of 4% LHB: CAMHB is aliquotted into all wells using a multichannel pipette. 90 μl of working antimicrobial stocks were no serial diluted down the tray by a 1:2 dilution. Negative broth controls and dilution control were taken into account when planning the set up of a 96-well tray.] 10 μL of bacterial suspension was then added to the appropriate wells in the 96 well tray. Appropriate positive (no antimicrobial), negative (no antimicrobial or bacteria) and negative dilution (a serial dilution control of antimicrobial and broth) controls were included in each assay. […] The MBC was determined by a 99.95% inhibition of S. pneumoniae, taking into account the dilution factor. MICs and MBCs were determined in quadruplicate and the mode was taken as the representative value. The MIC50, MIC90 and MIC range and MBC50, MBC90 and MBC range were determined according to CLSI standards. The MIC50 and MIC90, or MBC50 and MBC90, are defined by the lowest concentrations which, when all the MICs and MBCs of the isolates are arranged from lowest to highest, inhibited the 50th and 90th percentile of the total amount of isolates, respectively.

For assay [4], the system named is S. pneumoniae. Nature of the assay: MBC, pneumococcal isolates. It is filed as cell-based, Streptococcus pneumoniae. The settings on record: isolate WCH16. The method, then: as §1
The subject of assay [5] is S. aureus strain T3-29. Nature of the assay: Checkerboard synergy study, S. aureus T3-29. It is filed as cell-based, Staphylococcus aureus. The method, then: (§2) Firstly, the MIC of each antibiotic alone was determined in accordance to CLSI standard guidelines.
(§3) According to the checkerboard guidelines, Synergy (S) was defined as an FICI<0.5. No effect (NE) was defined as 0.5<FICI<4. Antagonism (A) was defined as a 4<FICI.

Assay [6] relates to Staphylococcus spp. Strain MK1. Nature of the assay: Checkerboard synergy study, Staphylococcus spp. MK1. It counts as cell-based. On the set-up: key to FIC1 (last-but-one column; FIC index of antibiotic + NCL812): FICI: <0.5 synergy, 0.5-4 no effect, >4 antagonism. The note with it: Staphylococcus spp. Strain MK1. As for the experimental part:
as §2, §3

Assay [7] relates to S. aureus ATCC 29213. As to the kind of experiment: MIC assay (CLSI M07-A8) in Mueller Hinton II Broth. It is filed as cell-based, Staphylococcus aureus. The settings on record: S. aureus ATCC 29213, quality control agent.
Description: The MIC assay method followed the procedure described by the Clinical and Laboratory Standards Institute, or CLSI (Clinical and Laboratory Standards Institute). […] The medium employed for the MIC assay was Mueller Hinton II Broth (MHB II—Becton Dickinson, Sparks, Md.; Cat No 212322; Lot 9044411). S. aureus ATCC 29213 served as the quality control strain, and linezolid was utilized as the quality control antibiotic to validate the assay.
Assay [8] deals with S. aureus ATCC 29213. Nature of the assay: ATP release assay (CellTiter-Glo). It is filed as cell-based, Staphylococcus aureus. The note with it: 8-fold the MIC (256 μg/ml), 30 min exposure. An excerpt:
The CellTiter-Glo Luminescent Cell Viability Assay (Promega) was utilized to measure the leakage of ATP from bacteria. […] The negative control received 2% DMSO, which represented the final DMSO concentration in each assay. […] Results were expressed as ATP concentration released to the medium (μM).
On the technique in general: Cellular ATP, detected with luciferase, serves as a proxy for viable cell number.

Regarding `CC1(C)S[C@@H]2[C@H](NC(=O)[C@H](N)c3ccccc3)C(=O)N2[C@H]1C(=O)O` [Ampicillin], the “MIC values against CLSI recommendations” value in assay [1] was “within the normal range expected”. The “MIC values against CLSI guidelines” value in assay [2] was “within the normal range expected”. For the same compound, in assay [3] (20 S. pneumoniae strains), the “MIC Range” value was in the range of 0.011 to 0.09 µg/mL. Besides, in assay [3] (Streptococcus pneumoniae), the MIC amounted to 0.023 µg/mL (≈ 0.0658 µM), the MIC50 worked out at 0.023 µg/mL (≈ 0.0658 µM) and the MIC90 turned out to be 0.023 µg/mL (≈ 0.0658 µM). For the same compound, the MIC in assay [3] (isolate EF3030) is reported as 0.023. In addition, in assay [3] (isolate WCH184), the MIC worked out at 0.045. Also, the MBC entry in assay [4] was “Autolysis”. The “Result (interaction of antibiotic with NCL812)” value (“Result” for short) in assay [5] was “NE (No effect (NE) was defined as 0.5<FICI<4)”.
With `O=C(N[C@H](CO)[C@H](O)c1ccc([N+](=O)[O-])cc1)C(Cl)Cl` [Chloramphenicol, chloramphenicol], in assay [5], the “FIC1 (last-but-one column; FIC index of antibiotic + NCL812)” value was determined as 0.75 and the “Result” value is “NE (No effect (NE) was defined as 0.5<FICI<4)”.
As to `O=C(O)c1cn(C2CC2)c2cc(N3CCNCC3)c(F)cc2c1=O` [Ciprofloxacin, ciprofloxacin], in assay [6], the “Antibiotic MIC Alone” value is 0.125 µg/mL and 0.25 µg/mL; the “FIC1 (last-but-one column; FIC index of antibiotic + NCL812)” value is 0.75 and 0.525 and 0.625 and 0.562; the “Result” value is listed as “NE (No effect (NE) was defined as 0.5<FICI<4)”.
Compound `CC[C@H]1OC(=O)[C@H](C)[C@@H](O[C@H]2C[C@@](C)(OC)[C@@H](O)[C@H](C)O2)[C@H](C)[C@@H](O[C@@H]2O[C@H](C)C[C@H](N(C)C)[C@H]2O)[C@](C)(O)C[C@@H](C)C(=O)[C@H](C)[C@@H](O)[C@]1(C)O` [Erythromycin, erythromycin] yielded an MIC in assay [3] (Streptococcus pneumoniae) of 0.00275 µg/mL (≈ 0.00375 µM). Also, the “Result” value in assay [5] is reported as “NE (No effect (NE) was defined as 0.5<FICI<4)”.
Take `CC(=O)NC[C@H]1CN(c2ccc(N3CCOCC3)c(F)c2)C(=O)O1` [Linezolid, linezolid]: the “MIC against CLSI quality control range” value in assay [7] is “within the CLSI-established quality control range”.
With `CC1(C)S[C@@H]2[C@H](NC(=O)Cc3ccccc3)C(=O)N2[C@H]1C(=O)O` [Penicillin G, penicillin G], in assay [6], the “Antibiotic MIC Alone” value was 0.125 µg/mL and 0.25 µg/mL; the “Antibiotic MIC With NCL812” value is 0.062 µg/mL and 0.031 µg/mL; the “FIC1 (last-but-one column; FIC index of antibiotic + NCL812)” value is 1 and 0.625; the “Result” value is “NE (No effect (NE) was defined as 0.5<FICI<4)”.
`Cc1cc(NS(=O)(=O)c2ccc(N)cc2)no1` [Sulfamethoxazole, sulfamethoxazole]: in assay [6], the “Antibiotic MIC Alone” value turned out to be 8 µg/mL; the “Antibiotic MIC With NCL812” value came out at 4 µg/mL; the “FIC1 (last-but-one column; FIC index of antibiotic + NCL812)” value is 0.75 and 1; the “FIC1 = MIC of antibiotic in combination with NCL812/MIC of antibiotic alone” value worked out at 0.5. Also, the “Result” value in assay [6] was “NE (No effect (NE) was defined as 0.5<FICI<4)”.
Take `CN(C)[C@@H]1C(O)=C(C(N)=O)C(=O)[C@@]2(O)C(O)=C3C(=O)c4c(O)cccc4[C@@](C)(O)[C@H]3C[C@@H]12` [Tetracycline, tetracycline]: in assay [5], the “FIC1 (last-but-one column; FIC index of antibiotic + NCL812)” value was 0.75 and 0.62; the “Result” value was “NE (No effect (NE) was defined as 0.5<FICI<4)”.
On to gentamicin, for which, in assay [6], the “Antibiotic MIC Alone” value was 1 µg/mL and 0.5 µg/mL; the “Result” value is given as “NE (No effect (NE) was defined as 0.5<FICI<4)”.
As to polymyxin B [reference compound], the “maximal release of ATP” value in assay [8] is reported as “approximately 0.34 μM”.
